Patent publication US9073855B2, “BCL-2 selective apoptosis-inducing agents for the treatment of cancer and immune diseases” (AbbVie Inc., priority 2008, dated 2015)

Columns and labels:
FL5.12/Bcl-2 cells = experiment: FL5.12/Bcl-2 cell viability assay under IL-3 withdrawal (CellTitre Glo); type: cell-based, murine; settings: Mus musculus, IL-3 withdrawn 48 hrs, then 24 hrs with compound
Outline: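 Cells (1×10^6/ml) are washed, resuspended in medium lacking WEHI-3B conditioned medium as IL-3 source, and held 48 hrs. Compounds are then added at a range of concentrations for 24 hrs, after which CellTitre Glo reports viability.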

GST-Bcl-XL = GST-Bcl-XL (Homo sapiens, UniProt Q07817); experiment: TR-FRET binding assay, GST-Bcl-XL with F-Bak peptide probe; settings: TR-FRET Binding Affinity, GST-Bcl-XL, F-Bak peptide probe
Outline: (§1)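 Competitive TR-FRET: GST-fusion protein, fluorescent Bak peptide probe and Tb-labelled anti-GST antibody incubated with compound dilution series (starting 50 μM as 2× stock, 10% DMSO) for 3 h at RT. Excitation 340/35 nm; Ki derived via Wang's exact competitive-binding equation.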

GST-Bcl-2 = GST-Bcl-2 (Homo sapiens, UniProt P10415); experiment: TR-FRET binding assay, GST-Bcl-2 with F-Bak peptide probe; settings: for Ki: TR-FRET Binding Affinity, GST-Bcl-2, F-Bak peptide probe
Outline: as §1

Sequence of GST-Bcl-XL (Q07817 whole entry, the tested form may be a part): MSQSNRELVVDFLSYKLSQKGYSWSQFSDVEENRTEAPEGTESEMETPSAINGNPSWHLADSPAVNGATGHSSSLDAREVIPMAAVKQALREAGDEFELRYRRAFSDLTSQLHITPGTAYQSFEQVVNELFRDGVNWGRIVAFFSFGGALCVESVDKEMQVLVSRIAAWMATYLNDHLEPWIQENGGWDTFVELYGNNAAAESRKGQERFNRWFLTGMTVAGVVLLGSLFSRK
Sequence of GST-Bcl-2 (P10415 whole entry): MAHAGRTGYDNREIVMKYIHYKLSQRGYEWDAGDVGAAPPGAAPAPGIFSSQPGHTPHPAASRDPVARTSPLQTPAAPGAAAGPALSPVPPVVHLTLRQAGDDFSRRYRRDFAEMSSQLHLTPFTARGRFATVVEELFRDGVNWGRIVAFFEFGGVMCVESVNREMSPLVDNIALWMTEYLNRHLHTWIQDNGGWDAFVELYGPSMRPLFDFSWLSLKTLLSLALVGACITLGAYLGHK

Structure (SMILES) | EC50 (FL5.12/Bcl-2 cells) [nM] | Ki (GST-Bcl-XL) [nM] | Ki (GST-Bcl-2) [nM] | Binding selectivity ratio (Bcl-XL Ki/Bcl-2 Ki) (GST-Bcl-2; ratio of TR-FRET Ki values, Bcl-XL over Bcl-2)
CC1(C)CCC(CN2CCN(c3ccc(C(=O)NS(=O)(=O)c4ccc(NCC5CCN(C(=O)OCc6ccccc6)CC5)c([N+](=O)[O-])c4)c(Oc4ccc5[nH]ccc5c4)c3)CC2)=C(c2ccc(Cl)cc2)C1 [Example 356, benzyl 4-({[4-({[4-(4-{[2-(4-chlorophenyl)-4,4-dimethylcyclohex-1-en-1-yl]methyl}piperazin-1-yl)-2-(1H-indol-5-yloxy)benzoyl]amino}sulfonyl)-2-nitrophenyl]amino}methyl)piperidine-1-carboxylate] | > 500 | > 660 | 5.02 | 
CO[C@H]1CC[C@H](CNc2ccc(S(=O)(=O)NC(=O)c3ccc(N4CCN(CC5=C(c6ccc(Cl)cc6)CC(C)(C)CC5)CC4)cc3Oc3ccc4[nH]ccc4c3)cc2[N+](=O)[O-])CC1 [Example 311, Trans-4-(4-{[2-(4-chlorophenyl)-4,4-dimethylcyclohex-1-en-1-yl]methyl}piperazin-1-yl)-2-(1H-indol-5-yloxy)-N-[(4-{[(4-methoxycyclohexyl)methyl]amino}-3-nitrophenyl)sulfonyl]benzamide] | 33.4 | > 660 | 0.26 | 
CC(c1ccccc1-c1ccc(Cl)cc1)N1CCN(c2ccc(C(=O)NS(=O)(=O)c3ccc(NN4CCN(C)CC4)c([N+](=O)[O-])c3)c(Oc3cccc4[nH]ccc34)c2)CC1 (stereo not shown) [Example 217, 4-{4-[1-(4′-chloro-1,1′-biphenyl-2-yl)ethyl]piperazin-1-yl}-2-(1H-indol-4-yloxy)-N-({4-[(4-methylpiperazin-1-yl)amino]-3-nitrophenyl}sulfonyl)benzamide] | 20.8 | 44.8 | 0.262 | 
CC1(C)CCC(CN2CCN(c3ccc(C(=O)NS(=O)(=O)c4ccc(NCC5CCC(F)(F)CC5)c([N+](=O)[O-])c4)c(Oc4cccc5[nH]ncc45)c3)CC2)=C(c2ccc(Cl)cc2)C1 [Example 412, 4-(4-{[2-(4-chlorophenyl)-4,4-dimethylcyclohex-1-en-1-yl]methyl}piperazin-1-yl)-N-[(4-{[(4,4-difluorocyclohexyl)methyl]amino}-3-nitrophenyl)sulfonyl]-2-(1H-indazol-4-yloxy)benzamide] | 9.48 | 135 | 0.021 | 6545.5
CC1(C)CCC(CN2CCN(c3ccc(C(=O)NS(=O)(=O)c4ccc(NCCN5CCNC5=O)c([N+](=O)[O-])c4)c(Oc4ccc5[nH]ccc5c4)c3)CC2)=C(c2ccc(Cl)cc2)C1 [Example 268, 4-(4-{[2-(4-chlorophenyl)-4,4-dimethylcyclohex-1-en-1-yl]methyl}piperazin-1-yl)-2-(1H-indol-5-yloxy)-N-[(3-nitro-4-{[2-(2-oxoimidazolidin-1-yl)ethyl]amino}phenyl)sulfonyl]benzamide] | 68.2 | 145 | 0.092 | 
CC1(C)CCC(CN2CCN(c3ccc(C(=O)NS(=O)(=O)c4ccc(NCCC#N)c([N+](=O)[O-])c4)c(Oc4cccc5[nH]ccc45)c3)CC2)=C(c2ccc(Cl)cc2)C1 [Example 320, 4-(4-{[2-(4-chlorophenyl)-4,4-dimethylcyclohex-1-en-1-yl]methyl}piperazin-1-yl)-N-({4-[(2-cyanoethyl)amino]-3-nitrophenyl}sulfonyl)-2-(1H-indol-4-yloxy)benzamide] | 41.6 | 129 | 1.24 | 
CC1(C)CCC(CN2CCN(c3ccc(C(=O)NS(=O)(=O)c4ccc(NCCN5CCNC(=O)C5)c([N+](=O)[O-])c4)c(Oc4ccc5[nH]ccc5c4)c3)CC2)=C(c2ccc(Cl)cc2)C1 [Example 273, 4-(4-{[2-(4-chlorophenyl)-4,4-dimethylcyclohex-1-en-1-yl]methyl}piperazin-1-yl)-2-(1H-indol-5-yloxy)-N-[(3-nitro-4-{[2-(3-oxopiperazin-1-yl)ethyl]amino}phenyl)sulfonyl]benzamide] | 70 | 181 | 0.076 | 
O=C(NS(=O)(=O)c1ccc(NCC2CCOCC2)c([N+](=O)[O-])c1)c1ccc(N2CCN(CC3=C(c4ccc(Cl)cc4)CCC(N4CCCC4)C3)CC2)cc1Oc1ccc2[nH]ccc2c1 (stereo not shown) [Example 272, 4-(4-{[2-(4-chlorophenyl)-5-pyrrolidin-1-ylcyclohex-1-en-1-yl]methyl}piperazin-1-yl)-2-(1H-indol-5-yloxy)-N-({3-nitro-4-[(tetrahydro-2H-pyran-4-ylmethyl)amino]phenyl}sulfonyl)benzamide] | 194 | > 660 | 0.011 | 
CN1CCC(Nc2ccc(S(=O)(=O)NC(=O)c3ccc(N4CCN(CC5=C(c6ccc(Cl)cc6)CC(C)(C)CC5)CC4)c(F)c3Oc3ccc4[nH]ccc4c3)cc2[N+](=O)[O-])CC1 [Example 184, 4-(4-{[2-(4-chlorophenyl)-4,4-dimethylcyclohex-1-en-1-yl]methyl}piperazin-1-yl)-3-fluoro-2-(1H-indol-5-yloxy)-N-({4-[(1-methylpiperidin-4-yl)amino]-3-nitrophenyl}sulfonyl)benzamide] | 27 | > 660 | 0.281 | 
CC(=O)N1CCC(Nc2ccc(S(=O)(=O)NC(=O)c3ccc(N4CCN(CC5=C(c6ccc(Cl)cc6)CC(C)(C)CC5)CC4)cc3Oc3ccc4[nH]ccc4c3)cc2[N+](=O)[O-])CC1 [Example 334, N-({4-[(1-acetylpiperidin-4-yl)amino]-3-nitrophenyl}sulfonyl)-4-(4-{[2-(4-chlorophenyl)-4,4-dimethylcyclohex-1-en-1-yl]methyl}piperazin-1-yl)-2-(1H-indol-5-yloxy)benzamide] | 65.9 | > 660 | 0.179 | 
COCCNc1ccc(S(=O)(=O)NC(=O)c2ccc(N3CCN(CC4=C(c5ccc(Cl)cc5)CC(C)(C)CC4)CC3)cc2Oc2cccc3[nH]ccc23)cc1[N+](=O)[O-] [Example 239, 4-(4-{[2-(4-chlorophenyl)-4,4-dimethylcyclohex-1-en-1-yl]methyl}piperazin-1-yl)-2-(1H-indol-4-yloxy)-N-({4-[(2-methoxyethyl)amino]-3-nitrophenyl}sulfonyl)benzamide] | 17.6 | 108 | 0.252 | 
CNc1ccc(S(=O)(=O)NC(=O)c2ccc(N3CCN(CC4=C(c5ccc(Cl)cc5)CC(C)(C)CC4)CC3)cc2Oc2ccc3[nH]ccc3c2)cc1S(=O)(=O)C(F)(F)F [Example 328, 4-(4-{[2-(4-chlorophenyl)-4,4-dimethylcyclohex-1-en-1-yl]methyl}piperazin-1-yl)-2-(1H-indol-5-yloxy)-N-({4-(methylamino)-3-[(trifluoromethyl)sulfonyl]phenyl}sulfonyl)benzamide] | > 500 | > 660 | 1.86 | 
O=C(NS(=O)(=O)c1ccc(NC2CCN(C3CCOCC3)CC2)c([N+](=O)[O-])c1)c1ccc(N2CCN(Cc3ccc(C(F)(F)F)cc3-c3ccc(Cl)cc3)CC2)cc1Oc1ccc2[nH]ccc2c1 [Example 358, 4-(4-{[4′-chloro-5-(trifluoromethyl)-1,1′-biphenyl-2-yl]methyl}piperazin-1-yl)-2-(1H-indol-5-yloxy)-N-({3-nitro-4-[(1-tetrahydro-2H-pyran-4-ylpiperidin-4-yl)amino]phenyl}sulfonyl)benzamide] | > 500 | > 660 | 5.42 | 
